In patent US20140342379A1, “Means and Methods for Assessing Gonadal Toxicity” (BASF SE, priority 2011, published 2014):
Marks after values point to notes of the source that are not given here. Each block holds one molecule with its values, some of them ahead of it.

Test system: male rats
Assay: 28-day repeated dose study, plasma metabolite profiling (GC-MS, LC-MS), male rats
Type: in vivo, rat
Source text: Drinking water was also offered ad libitum.

18-Hydroxy-11-deoxycorticosterone, plasma, treatment ratio versus control (day 7): 0.49*
Alanine, plasma, treatment ratio versus control (day 7): 0.76*
Arachidonic acid (C20:cis[5,8,11,14]4), plasma, treatment ratio versus control (day 7): 0.76*
Coenzyme Q9, plasma, treatment ratio versus control (day 7): 0.72*
Creatinine, plasma, treatment ratio versus control (day 7): 1.23*
DAG (C18:1, C18:2), plasma, treatment ratio versus control (day 7): 0.81
Fructose-6-phosphate, plasma, treatment ratio versus control (day 7): 0.76
Galactose, lipid fraction, plasma, treatment ratio versus control (day 7): 0.81*
Glucosamine, plasma, treatment ratio versus control (day 7): 1
Glucose, plasma, treatment ratio versus control (day 7): 0.86*
Glycerol, polar fraction, plasma, treatment ratio versus control (day 7): 0.75*
Heneicosanoic acid (C21:0), plasma, treatment ratio versus control (day 7): 0.92
Lactate, plasma, treatment ratio versus control (day 7): 0.68
Linolenic acid (C18:cis[9,12,15]3), plasma, treatment ratio versus control (day 7): 0.59*
Lysine, plasma, treatment ratio versus control (day 7): 0.81*
Malate, plasma, treatment ratio versus control (day 7): 0.65*
Oleic acid (C18:cis[9]1), plasma, treatment ratio versus control (day 7): 0.85*
Palmitoleic acid (C16:cis[9]1), plasma, treatment ratio versus control (day 7): 0.81
Phenylalanine, plasma, treatment ratio versus control (day 7): 0.96
Phosphate (inorganic and organic phosphates), plasma, treatment ratio versus control (day 7): 0.9*
Pyruvate, plasma, treatment ratio versus control (day 7): 0.84
Spermidine, plasma, treatment ratio versus control (day 7): 0.77*
TAG (C16:0,C16:1), plasma, treatment ratio versus control (day 7): 0.67*
Uracil, plasma, treatment ratio versus control (day 7): 0.67*
myo-Inositol, plasma, treatment ratio versus control (day 7): 0.85*
trans-4-Hydroxyproline, plasma, treatment ratio versus control (day 7): 0.73*
18-Hydroxy-11-deoxycorticosterone, plasma, treatment ratio versus control (day 14): 0.59*
Alanine, plasma, treatment ratio versus control (day 14): 0.84*
Arachidonic acid (C20:cis[5,8,11,14]4), plasma, treatment ratio versus control (day 14): 0.83*
Coenzyme Q9, plasma, treatment ratio versus control (day 14): 0.67*
Creatinine, plasma, treatment ratio versus control (day 14): 1.45*
DAG (C18:1, C18:2), plasma, treatment ratio versus control (day 14): 0.74*
Fructose-6-phosphate, plasma, treatment ratio versus control (day 14): 1.08
Galactose, lipid fraction, plasma, treatment ratio versus control (day 14): 1
Glucosamine, plasma, treatment ratio versus control (day 14): 1.15
Glucose, plasma, treatment ratio versus control (day 14): 0.88*
Glycerol, polar fraction, plasma, treatment ratio versus control (day 14): 0.84*
Heneicosanoic acid (C21:0), plasma, treatment ratio versus control (day 14): 0.87*
Lactate, plasma, treatment ratio versus control (day 14): 0.69*
Linolenic acid (C18:cis[9,12,15]3), plasma, treatment ratio versus control (day 14): 0.57*
Lysine, plasma, treatment ratio versus control (day 14): 0.97
Malate, plasma, treatment ratio versus control (day 14): 0.8*
Oleic acid (C18:cis[9]1), plasma, treatment ratio versus control (day 14): 0.82*
Palmitoleic acid (C16:cis[9]1), plasma, treatment ratio versus control (day 14): 0.77*
Phenylalanine, plasma, treatment ratio versus control (day 14): 0.96*
Phosphate (inorganic and organic phosphates), plasma, treatment ratio versus control (day 14): 0.89*
Pyruvate, plasma, treatment ratio versus control (day 14): 0.69*
Spermidine, plasma, treatment ratio versus control (day 14): 0.69*
TAG (C16:0,C16:1), plasma, treatment ratio versus control (day 14): 0.38*
Uracil, plasma, treatment ratio versus control (day 14): 0.67*
myo-Inositol, plasma, treatment ratio versus control (day 14): 0.97
trans-4-Hydroxyproline, plasma, treatment ratio versus control (day 14): 0.75*
18-Hydroxy-11-deoxycorticosterone, plasma, treatment ratio versus control (day 28): 0.58
Alanine, plasma, treatment ratio versus control (day 28): 0.92*
Arachidonic acid (C20:cis[5,8,11,14]4), plasma, treatment ratio versus control (day 28): 0.97
Coenzyme Q9, plasma, treatment ratio versus control (day 28): 0.73*
Creatinine, plasma, treatment ratio versus control (day 28): 1.65*
DAG (C18:1, C18:2), plasma, treatment ratio versus control (day 28): 0.67
Fructose-6-phosphate, plasma, treatment ratio versus control (day 28): 0.83*
Galactose, lipid fraction, plasma, treatment ratio versus control (day 28): 1.15
Glucosamine, plasma, treatment ratio versus control (day 28): 0.84
Glucose, plasma, treatment ratio versus control (day 28): 0.87*
Glycerol, polar fraction, plasma, treatment ratio versus control (day 28): 0.79*
Heneicosanoic acid (C21:0), plasma, treatment ratio versus control (day 28): 1.08
Lactate, plasma, treatment ratio versus control (day 28): 0.77*
Linolenic acid (C18:cis[9,12,15]3), plasma, treatment ratio versus control (day 28): 0.53*
Lysine, plasma, treatment ratio versus control (day 28): 0.88*
Malate, plasma, treatment ratio versus control (day 28): 0.69*
Oleic acid (C18:cis[9]1), plasma, treatment ratio versus control (day 28): 0.8*
Palmitoleic acid (C16:cis[9]1), plasma, treatment ratio versus control (day 28): 0.88*
Phenylalanine, plasma, treatment ratio versus control (day 28): 0.93*
Phosphate (inorganic and organic phosphates), plasma, treatment ratio versus control (day 28): 1.02
Pyruvate, plasma, treatment ratio versus control (day 28): 0.69*
Spermidine, plasma, treatment ratio versus control (day 28): 0.79*
TAG (C16:0,C16:1), plasma, treatment ratio versus control (day 28): 0.71*
Uracil, plasma, treatment ratio versus control (day 28): 0.77*
myo-Inositol, plasma, treatment ratio versus control (day 28): 0.91*
trans-4-Hydroxyproline, plasma, treatment ratio versus control (day 28): 0.81*
SMILES: Cc1ncc[nH]1 [2-Methylimidazole]

SMILES: CCCCOCCO [2-Butoxyethanol]
18-Hydroxy-11-deoxycorticosterone, plasma, treatment ratio versus control (day 7): 0.18*
Alanine, plasma, treatment ratio versus control (day 7): 0.83*
Arachidonic acid (C20:cis[5,8,11,14]4), plasma, treatment ratio versus control (day 7): 0.86*
Coenzyme Q9, plasma, treatment ratio versus control (day 7): 0.83*
Creatinine, plasma, treatment ratio versus control (day 7): 1.03
DAG (C18:1, C18:2), plasma, treatment ratio versus control (day 7): 0.99
Fructose-6-phosphate, plasma, treatment ratio versus control (day 7): 0.84
Galactose, lipid fraction, plasma, treatment ratio versus control (day 7): 0.8*
Glucosamine, plasma, treatment ratio versus control (day 7): 1
Glucose, plasma, treatment ratio versus control (day 7): 0.81*
Glycerol, polar fraction, plasma, treatment ratio versus control (day 7): 0.86*
Heneicosanoic acid (C21:0), plasma, treatment ratio versus control (day 7): 0.88
Lactate, plasma, treatment ratio versus control (day 7): 0.93*
Linolenic acid (C18:cis[9,12,15]3), plasma, treatment ratio versus control (day 7): 1.01
Lysine, plasma, treatment ratio versus control (day 7): 0.81*
Malate, plasma, treatment ratio versus control (day 7): 0.81*
Oleic acid (C18:cis[9]1), plasma, treatment ratio versus control (day 7): 0.98
Palmitoleic acid (C16:cis[9]1), plasma, treatment ratio versus control (day 7): 0.94
Phenylalanine, plasma, treatment ratio versus control (day 7): 0.87*
Phosphate (inorganic and organic phosphates), plasma, treatment ratio versus control (day 7): 1.05
Pyruvate, plasma, treatment ratio versus control (day 7): 1.1
Spermidine, plasma, treatment ratio versus control (day 7): 0.67*
TAG (C16:0,C16:1), plasma, treatment ratio versus control (day 7): 1.16
Uracil, plasma, treatment ratio versus control (day 7): 0.77*
myo-Inositol, plasma, treatment ratio versus control (day 7): 0.88
trans-4-Hydroxyproline, plasma, treatment ratio versus control (day 7): 1.03
18-Hydroxy-11-deoxycorticosterone, plasma, treatment ratio versus control (day 14): 0.44*
Alanine, plasma, treatment ratio versus control (day 14): 0.93
Arachidonic acid (C20:cis[5,8,11,14]4), plasma, treatment ratio versus control (day 14): 0.84
Coenzyme Q9, plasma, treatment ratio versus control (day 14): 0.5*
Creatinine, plasma, treatment ratio versus control (day 14): 1.34*
DAG (C18:1, C18:2), plasma, treatment ratio versus control (day 14): 0.69*
Fructose-6-phosphate, plasma, treatment ratio versus control (day 14): 1.11
Galactose, lipid fraction, plasma, treatment ratio versus control (day 14): 0.86
Glucosamine, plasma, treatment ratio versus control (day 14): 0.88
Glucose, plasma, treatment ratio versus control (day 14): 0.73*
Glycerol, polar fraction, plasma, treatment ratio versus control (day 14): 0.95
Heneicosanoic acid (C21:0), plasma, treatment ratio versus control (day 14): 0.86*
Lactate, plasma, treatment ratio versus control (day 14): 0.86
Linolenic acid (C18:cis[9,12,15]3), plasma, treatment ratio versus control (day 14): 0.9*
Lysine, plasma, treatment ratio versus control (day 14): 1
Malate, plasma, treatment ratio versus control (day 14): 0.79*
Oleic acid (C18:cis[9]1), plasma, treatment ratio versus control (day 14): 0.8*
Palmitoleic acid (C16:cis[9]1), plasma, treatment ratio versus control (day 14): 0.77
Phenylalanine, plasma, treatment ratio versus control (day 14): 0.94*
Phosphate (inorganic and organic phosphates), plasma, treatment ratio versus control (day 14): 1.03
Pyruvate, plasma, treatment ratio versus control (day 14): 0.78
Spermidine, plasma, treatment ratio versus control (day 14): 0.68*
TAG (C16:0,C16:1), plasma, treatment ratio versus control (day 14): 0.66*
Uracil, plasma, treatment ratio versus control (day 14): 0.9
myo-Inositol, plasma, treatment ratio versus control (day 14): 0.82*
trans-4-Hydroxyproline, plasma, treatment ratio versus control (day 14): 1.21*
18-Hydroxy-11-deoxycorticosterone, plasma, treatment ratio versus control (day 28): 0.68*
Alanine, plasma, treatment ratio versus control (day 28): 0.91*
Arachidonic acid (C20:cis[5,8,11,14]4), plasma, treatment ratio versus control (day 28): 0.84
Coenzyme Q9, plasma, treatment ratio versus control (day 28): 0.83
Creatinine, plasma, treatment ratio versus control (day 28): 1.19*
DAG (C18:1, C18:2), plasma, treatment ratio versus control (day 28): 0.78
Fructose-6-phosphate, plasma, treatment ratio versus control (day 28): 0.61*
Galactose, lipid fraction, plasma, treatment ratio versus control (day 28): 0.71*
Glucosamine, plasma, treatment ratio versus control (day 28): 1.3*
Glucose, plasma, treatment ratio versus control (day 28): 0.93*
Glycerol, polar fraction, plasma, treatment ratio versus control (day 28): 0.87*
Heneicosanoic acid (C21:0), plasma, treatment ratio versus control (day 28): 0.96
Lactate, plasma, treatment ratio versus control (day 28): 0.72*
Linolenic acid (C18:cis[9,12,15]3), plasma, treatment ratio versus control (day 28): 0.99
Lysine, plasma, treatment ratio versus control (day 28): 0.86*
Malate, plasma, treatment ratio versus control (day 28): 0.7*
Oleic acid (C18:cis[9]1), plasma, treatment ratio versus control (day 28): 0.91
Palmitoleic acid (C16:cis[9]1), plasma, treatment ratio versus control (day 28): 0.77
Phenylalanine, plasma, treatment ratio versus control (day 28): 0.95*
Phosphate (inorganic and organic phosphates), plasma, treatment ratio versus control (day 28): 1.02*
Pyruvate, plasma, treatment ratio versus control (day 28): 0.72*
Spermidine, plasma, treatment ratio versus control (day 28): 0.77*
TAG (C16:0,C16:1), plasma, treatment ratio versus control (day 28): 1.06
Uracil, plasma, treatment ratio versus control (day 28): 0.71*
myo-Inositol, plasma, treatment ratio versus control (day 28): 0.93*
trans-4-Hydroxyproline, plasma, treatment ratio versus control (day 28): 1.15

3-Hydroxybutyrate, plasma, treatment ratio versus control (day 7): 0.71
3-O-Methylsphingosine (d18:1), plasma, treatment ratio versus control (day 7): 0.06
Campesterol, plasma, treatment ratio versus control (day 7): 0.08
Cholesterol, plasma, treatment ratio versus control (day 7): 0.05
Coenzyme Q9, plasma, treatment ratio versus control (day 7): 0.09*
Coenzyme Q10, plasma, treatment ratio versus control (day 7): 0.09*
Glutamine, plasma, treatment ratio versus control (day 7): 0.84
Histidine, plasma, treatment ratio versus control (day 7): 2.33*
Lysine, plasma, treatment ratio versus control (day 7): 1.47
Palmitoleic acid (C16:cis[9]1), plasma, treatment ratio versus control (day 7): 0.2
Stearic acid (C18:0), plasma, treatment ratio versus control (day 7): 0.18
Threonine, plasma, treatment ratio versus control (day 7): 1.44*
erythro-Sphingosine, plasma, treatment ratio versus control (day 7): 0.03
3-Hydroxybutyrate, plasma, treatment ratio versus control (day 14): 0.23*
3-O-Methylsphingosine (d18:1), plasma, treatment ratio versus control (day 14): 0.35*
Campesterol, plasma, treatment ratio versus control (day 14): 0.6*
Cholesterol, plasma, treatment ratio versus control (day 14): 0.57*
Coenzyme Q9, plasma, treatment ratio versus control (day 14): 0.86
Coenzyme Q10, plasma, treatment ratio versus control (day 14): 0.36*
Glutamine, plasma, treatment ratio versus control (day 14): 0.91
Histidine, plasma, treatment ratio versus control (day 14): 2.16*
Lignoceric acid (C24:0), plasma, treatment ratio versus control (day 14): 0.47*
Lysine, plasma, treatment ratio versus control (day 14): 1.4*
Palmitoleic acid (C16:cis[9]1), plasma, treatment ratio versus control (day 14): 1.28
Stearic acid (C18:0), plasma, treatment ratio versus control (day 14): 0.67*
Threonine, plasma, treatment ratio versus control (day 14): 1.85*
erythro-Sphingosine, plasma, treatment ratio versus control (day 14): 0.45*
SMILES: C#CC1(O)CCC2C3CCc4cc(O)ccc4C3CCC21C (stereo not drawn) [17-alpha-Ethynylestradiol, 17-ethynyl-13-methyl-7,8,9,11,12,13,14,15,16,17-decahydro-6H-cyclopenta[a]phenanthrene-3,17-diol]
